# Laboratory results from ChEMBL document CHEMBL1201862, “PubChem BioAssay data set” (2004).
# Calls of active or inactive are those of the source.
# Legend:
# [1] = biological target: T1, Protein RecA (Mycobacterium tuberculosis, UniProt P9WHJ3); experiment: Fluorescence Cell-Free Homogeneous Dose Retest to Identify Inhibitors of RecA-Intein Splicing Activity. [Related pubchem assays (depositor defined):AID2097, AID2223, AID489010, AID492950]; type: functional
# T1 sequence (P9WHJ3 whole entry): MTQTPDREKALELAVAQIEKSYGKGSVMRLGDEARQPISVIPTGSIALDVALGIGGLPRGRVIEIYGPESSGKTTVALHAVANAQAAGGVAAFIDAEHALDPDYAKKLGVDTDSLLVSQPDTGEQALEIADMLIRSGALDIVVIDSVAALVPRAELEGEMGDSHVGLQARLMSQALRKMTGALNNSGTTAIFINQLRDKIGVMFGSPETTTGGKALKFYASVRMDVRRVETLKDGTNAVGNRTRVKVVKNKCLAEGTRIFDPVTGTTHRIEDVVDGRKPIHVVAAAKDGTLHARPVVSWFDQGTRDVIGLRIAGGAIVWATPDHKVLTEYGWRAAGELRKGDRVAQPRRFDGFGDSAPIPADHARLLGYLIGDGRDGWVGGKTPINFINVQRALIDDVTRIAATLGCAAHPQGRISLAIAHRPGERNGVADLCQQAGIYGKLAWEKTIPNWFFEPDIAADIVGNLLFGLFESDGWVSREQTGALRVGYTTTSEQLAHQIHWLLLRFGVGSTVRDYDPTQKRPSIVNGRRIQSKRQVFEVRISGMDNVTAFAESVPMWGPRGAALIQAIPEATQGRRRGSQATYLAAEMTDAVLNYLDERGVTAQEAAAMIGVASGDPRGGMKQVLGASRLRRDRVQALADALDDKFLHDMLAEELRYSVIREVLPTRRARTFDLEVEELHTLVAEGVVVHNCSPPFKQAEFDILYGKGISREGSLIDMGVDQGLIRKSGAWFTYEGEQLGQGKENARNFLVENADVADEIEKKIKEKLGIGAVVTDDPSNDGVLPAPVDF
# [2] = biological target: T2, Replicative DNA helicase DnaB (Mycobacterium tuberculosis, UniProt P9WMR3); experiment: DnaB intein splicing inhibitors, dose response, biochemical, cell-free fluorescence (AID 449749); type: functional
# T2 sequence (P9WMR3 whole entry): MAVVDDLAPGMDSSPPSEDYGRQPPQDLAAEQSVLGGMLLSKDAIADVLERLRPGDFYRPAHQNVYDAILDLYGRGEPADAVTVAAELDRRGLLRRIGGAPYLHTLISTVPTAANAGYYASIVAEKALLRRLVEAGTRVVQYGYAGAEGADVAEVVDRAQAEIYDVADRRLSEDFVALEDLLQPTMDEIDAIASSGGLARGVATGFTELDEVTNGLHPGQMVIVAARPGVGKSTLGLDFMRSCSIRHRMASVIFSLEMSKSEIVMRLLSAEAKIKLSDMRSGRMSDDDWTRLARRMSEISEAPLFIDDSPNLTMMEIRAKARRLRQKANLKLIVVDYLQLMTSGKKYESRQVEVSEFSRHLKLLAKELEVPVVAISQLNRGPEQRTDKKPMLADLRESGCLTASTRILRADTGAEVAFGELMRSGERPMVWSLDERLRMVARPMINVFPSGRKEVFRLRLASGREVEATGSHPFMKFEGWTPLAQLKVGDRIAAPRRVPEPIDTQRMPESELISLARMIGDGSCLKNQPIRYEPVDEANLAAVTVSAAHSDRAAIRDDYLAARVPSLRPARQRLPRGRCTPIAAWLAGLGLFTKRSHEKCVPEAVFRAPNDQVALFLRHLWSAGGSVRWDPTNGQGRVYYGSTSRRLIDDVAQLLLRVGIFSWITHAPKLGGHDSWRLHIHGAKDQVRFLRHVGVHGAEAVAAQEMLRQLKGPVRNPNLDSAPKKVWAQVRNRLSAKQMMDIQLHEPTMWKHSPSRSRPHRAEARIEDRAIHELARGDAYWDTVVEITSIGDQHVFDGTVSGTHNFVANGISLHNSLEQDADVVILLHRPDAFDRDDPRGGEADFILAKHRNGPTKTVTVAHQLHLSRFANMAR
# [3] = C. albicans growth with fluconazole, confirmation, fluorescence, retest (AID 2467); type: functional, cell-based
# [4] = NIH-3T3 fibroblast cytotoxicity, dose response, cytotoxicity control, cell-based, fluorescence, Alamar Blue, secondary assay (AID 2327); type: functional;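 note: NIH-3T3 mouse fibroblasts cultured with fluconazole at 8 µg/mL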
# [5] = biological target: Cytochrome P450 2D6 (Homo sapiens, UniProt P10635);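 note: CYP2D6 member of a cytochrome P450 panel assay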
# [6] = biological target: Cytochrome P450 2C9 (Homo sapiens, UniProt P11712)
# [7] = biological target: Cytochrome P450 2C19 (Homo sapiens, UniProt P33261); experiment: Cytochrome panel assay with activity outcomes. Panel member name: p450-cyp2c19 Compounds with AC50 equal or less than 10 uM are considered active; type: functional; settings: read-out: AC50
# [8] = microbe, parasite or virus in culture; type: functional; settings: Mycobacterium tuberculosis
# [9] = biological target: T3, Zinc finger protein mex-5 (Caenorhabditis elegans, UniProt Q9XUB2); experiment: MEX-5/TCR-2 RNA interaction inhibitors, dose response, biochemical, C. elegans, fluorescence polarization (AID 1960)
# T3 sequence (Q9XUB2 whole entry): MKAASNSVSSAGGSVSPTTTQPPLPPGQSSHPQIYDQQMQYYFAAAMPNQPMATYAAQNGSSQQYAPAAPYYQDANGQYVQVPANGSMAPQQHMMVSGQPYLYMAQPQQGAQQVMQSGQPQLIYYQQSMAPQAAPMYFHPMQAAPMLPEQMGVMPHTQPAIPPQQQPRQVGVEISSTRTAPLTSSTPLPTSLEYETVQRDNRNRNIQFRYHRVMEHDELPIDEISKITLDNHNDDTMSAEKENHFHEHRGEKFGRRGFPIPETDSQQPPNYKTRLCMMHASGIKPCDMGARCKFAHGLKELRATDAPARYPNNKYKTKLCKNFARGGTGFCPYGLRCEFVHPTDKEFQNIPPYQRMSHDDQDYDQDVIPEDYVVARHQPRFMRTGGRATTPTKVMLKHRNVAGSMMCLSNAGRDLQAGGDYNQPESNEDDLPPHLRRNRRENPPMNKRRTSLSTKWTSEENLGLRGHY
# [10] = biological target: T4, RNA-binding protein pos-1 (Caenorhabditis elegans, UniProt G5EF15); experiment: inhibitors of POS-1/mex-3 RNA binding, dose response, biochemical, fluorescence polarization (AID 1964);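 note: purified POS-1 fused to maltose binding protein made in E. coli; potency of compounds blocking POS-1 binding to fluorescent RNA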
# T4 sequence (G5EF15 whole entry): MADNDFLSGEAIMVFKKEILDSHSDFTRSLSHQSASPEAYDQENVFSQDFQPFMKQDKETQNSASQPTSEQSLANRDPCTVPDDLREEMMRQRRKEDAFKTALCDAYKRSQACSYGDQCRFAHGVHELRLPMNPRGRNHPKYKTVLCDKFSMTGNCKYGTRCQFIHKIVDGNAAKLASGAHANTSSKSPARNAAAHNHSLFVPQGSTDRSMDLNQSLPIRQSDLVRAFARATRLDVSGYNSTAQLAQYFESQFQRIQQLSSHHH
# [11] = biological target: T5, Heat shock factor protein 1 (Mus musculus, UniProt P38532); experiment: HSF1 potentiators in luciferase reporter cells, confirmation, cell-based, NIH3T3, luminescence, dose retest (AID 435004); type: functional;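 note: stress induced by proteasome inhibitor MG132 added 30 min after compound; luciferase reporter driven by HSF1 response element in NIH3T3 cells; actives raise luminescence as potentiators of the MG132 stress response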
# T5 sequence (P38532 whole entry): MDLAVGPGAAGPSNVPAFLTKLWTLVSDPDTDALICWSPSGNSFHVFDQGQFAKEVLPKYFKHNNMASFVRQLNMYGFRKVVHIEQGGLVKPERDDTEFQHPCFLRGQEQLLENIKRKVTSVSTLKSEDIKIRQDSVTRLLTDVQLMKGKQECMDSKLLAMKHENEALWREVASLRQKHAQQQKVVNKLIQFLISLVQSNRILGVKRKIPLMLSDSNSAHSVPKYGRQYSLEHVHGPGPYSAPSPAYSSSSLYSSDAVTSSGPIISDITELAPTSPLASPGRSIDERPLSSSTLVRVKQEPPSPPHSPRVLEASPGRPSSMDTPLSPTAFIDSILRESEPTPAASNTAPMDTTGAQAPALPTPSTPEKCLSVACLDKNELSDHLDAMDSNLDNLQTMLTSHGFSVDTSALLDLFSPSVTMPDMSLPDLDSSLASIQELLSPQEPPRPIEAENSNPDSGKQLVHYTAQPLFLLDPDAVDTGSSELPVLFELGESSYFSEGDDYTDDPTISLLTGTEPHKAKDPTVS
# [12] = HEp-2 cell cytotoxicity, dose response, cytotoxicity control for RSV inhibitor project, HTS (AID 2410); type: functional; settings: human respiratory syncytial virus
# [13] = biological target: FAD-linked sulfhydryl oxidase ALR (Homo sapiens, UniProt P55789); experiment: inhibitors of human ALR sulfhydryl oxidase, dose response, biochemical, H2O2 detection, luminescence, cherry-pick (AID 493248)
# [14] = Luminescence Cell-Based Dose Retest to Confirm Inhibitors of Cancer Stem Cells. [Related pubchem assays (depositor defined):AID2717, AID2721]; type: functional; settings: Homo sapiens
# [15] = inhibitors of intracellular T. cruzi replication, confirmation, NIH3T3 host cells, beta-gal luminescence (AID 2044); type: functional, cell-based;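 note: intracellular parasites grown in NIH/3T3 mouse fibroblasts as host cells; luminescent beta-galactosidase reporter signal from transgenic T. cruzi replicating inside host cells; inhibitors lower the luminescence signal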
# [16] = cytotoxicity toward NIH3T3 fibroblasts, dose response, counter-screen, cell-based, ATP luminescence, mouse fibroblasts (AID 2010); type: functional;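 note: cells exposed to compound for about 90 hours before reading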
# [17] = test system: INS1; experiment: beta cell apoptosis inhibitors, cytokine rescue, dose response, luminescence, retest (AID 449756); type: functional, cell-based; settings: Rattus norvegicus;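 note: cell death triggered by IL-1 beta plus TNF-alpha plus IFN-gamma mixture; protective hits raise ATP signal compared with cytokine alone wells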
# [18] = biological target: Paired box protein Pax-8 (Homo sapiens, UniProt Q06710); experiment: inhibitors of PAX8-driven TPO luciferase reporter, dose response, RMG-I cells, cherry-pick (AID 687027); type: functional, cell-based;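 note: luciferase reporter driven by Pax8 target thyroperoxidase promoter measured by SteadyGlo luminescence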
# Paired box protein Pax-8, sequence (Q06710 whole entry): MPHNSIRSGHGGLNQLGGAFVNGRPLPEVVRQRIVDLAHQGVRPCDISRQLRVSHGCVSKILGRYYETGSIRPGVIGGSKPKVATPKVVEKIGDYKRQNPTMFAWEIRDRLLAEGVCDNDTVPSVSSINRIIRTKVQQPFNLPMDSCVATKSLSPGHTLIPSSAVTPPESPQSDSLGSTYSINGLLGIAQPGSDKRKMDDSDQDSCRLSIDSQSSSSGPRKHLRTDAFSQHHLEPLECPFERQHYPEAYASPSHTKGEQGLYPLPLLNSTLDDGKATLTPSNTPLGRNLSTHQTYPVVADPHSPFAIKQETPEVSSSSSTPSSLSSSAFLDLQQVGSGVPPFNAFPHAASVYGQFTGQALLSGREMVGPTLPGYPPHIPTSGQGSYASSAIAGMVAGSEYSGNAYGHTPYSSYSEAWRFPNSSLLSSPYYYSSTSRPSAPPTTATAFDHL
# Cytochrome P450 2D6, sequence (P10635 whole entry): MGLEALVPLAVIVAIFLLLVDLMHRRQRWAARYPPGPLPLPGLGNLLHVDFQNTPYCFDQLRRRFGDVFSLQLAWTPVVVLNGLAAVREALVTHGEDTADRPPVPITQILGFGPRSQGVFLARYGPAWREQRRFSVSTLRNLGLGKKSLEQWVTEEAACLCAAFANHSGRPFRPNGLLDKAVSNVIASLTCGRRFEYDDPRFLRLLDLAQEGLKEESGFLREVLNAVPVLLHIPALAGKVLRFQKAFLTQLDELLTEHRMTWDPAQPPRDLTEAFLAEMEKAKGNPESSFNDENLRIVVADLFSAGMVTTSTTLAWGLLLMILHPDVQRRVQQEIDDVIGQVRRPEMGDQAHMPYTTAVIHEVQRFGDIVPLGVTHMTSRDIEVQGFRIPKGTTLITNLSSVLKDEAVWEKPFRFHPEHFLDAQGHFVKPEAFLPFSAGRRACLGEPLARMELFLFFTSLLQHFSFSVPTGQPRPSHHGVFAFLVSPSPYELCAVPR
# Cytochrome P450 2C9, sequence (P11712 whole entry): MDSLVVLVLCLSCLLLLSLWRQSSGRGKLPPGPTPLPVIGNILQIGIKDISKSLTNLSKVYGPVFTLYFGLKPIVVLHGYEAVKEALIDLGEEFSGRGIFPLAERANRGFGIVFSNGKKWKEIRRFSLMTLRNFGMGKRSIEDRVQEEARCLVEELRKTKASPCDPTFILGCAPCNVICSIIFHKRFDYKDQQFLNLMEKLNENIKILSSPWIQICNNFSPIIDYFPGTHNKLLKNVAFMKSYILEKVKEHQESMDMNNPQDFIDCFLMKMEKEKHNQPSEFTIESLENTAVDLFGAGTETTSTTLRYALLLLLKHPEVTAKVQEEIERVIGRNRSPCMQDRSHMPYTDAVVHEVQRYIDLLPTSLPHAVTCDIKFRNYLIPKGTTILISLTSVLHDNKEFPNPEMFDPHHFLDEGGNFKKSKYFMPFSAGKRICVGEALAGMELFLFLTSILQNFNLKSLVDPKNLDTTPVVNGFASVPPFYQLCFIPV
# FAD-linked sulfhydryl oxidase ALR, sequence (P55789 whole entry): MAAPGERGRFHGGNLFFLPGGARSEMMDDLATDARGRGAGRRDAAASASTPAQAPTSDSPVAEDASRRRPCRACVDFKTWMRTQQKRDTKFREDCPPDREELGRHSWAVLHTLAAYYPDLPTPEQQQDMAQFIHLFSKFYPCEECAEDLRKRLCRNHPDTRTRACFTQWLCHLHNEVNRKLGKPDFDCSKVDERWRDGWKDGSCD
# Cytochrome P450 2C19, sequence (P33261 whole entry): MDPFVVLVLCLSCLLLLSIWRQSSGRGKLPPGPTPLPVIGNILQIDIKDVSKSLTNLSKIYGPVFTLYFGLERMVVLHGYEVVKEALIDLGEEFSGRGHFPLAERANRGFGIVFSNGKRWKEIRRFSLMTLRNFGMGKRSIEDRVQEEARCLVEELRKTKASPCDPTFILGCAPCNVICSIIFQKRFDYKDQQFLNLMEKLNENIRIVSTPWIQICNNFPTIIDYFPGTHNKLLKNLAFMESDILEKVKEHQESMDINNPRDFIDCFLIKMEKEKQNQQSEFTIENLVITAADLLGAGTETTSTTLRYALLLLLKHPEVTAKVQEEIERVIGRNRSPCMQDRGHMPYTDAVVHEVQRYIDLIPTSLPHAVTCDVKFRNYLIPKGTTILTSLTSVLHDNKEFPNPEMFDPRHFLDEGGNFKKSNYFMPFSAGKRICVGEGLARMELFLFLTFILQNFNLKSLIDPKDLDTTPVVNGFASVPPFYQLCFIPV
compound,measurement,setting,value
N#CC(C#N)=NNc1ccc(S(=O)(=O)N2CCCC2)cc1,EC50,[1],23.9 µM (active)
same,AC50,[2],6.9 µM (active)
O=[N+]([O-])c1ccc(C2[C@H]3C(c4ccccc4)=NC4(CCCC4)N23)cc1 (some centres not stated),EC50,[3],> 38 µM (not active)
same,EC50,[4],> 150 µM (inactive)
COc1ccc(-c2cc(-c3c(O)c(OC)c4occc4c3OC)[nH]n2)cc1OC,EC50,[3],> 38 µM (not active)
same,AC50,[5],25.1 µM (inconclusive)
same,AC50,[6],39.8 µM (inconclusive)
same,EC50,[4],> 160 µM (inactive)
Cn1c(=O)cc(OCCCC(=O)Nc2cccnc2)c2ccccc21,EC50,[3],> 38 µM (not active)
same,AC50,[5],10 µM (inconclusive)
same,EC50,[4],> 160 µM (inactive)
same,AC50,[7],20 µM (inconclusive)
COCCCNC(=O)/C(C#N)=C/c1c(N2CCN(c3cccc(Cl)c3)CC2)nc2c(C)cccn2c1=O,CC50,[8],> 40 µM (active)
COc1ccccc1N1CCN(CCCCOc2cccc3ccccc23)CC1,CC50,[8],> 40 µM (active)
CCC(O)CC(C(=O)NNc1ccccc1)C(=O)NNc1ccccc1 (configuration not stated),EC50,[3],> 38 µM (not active)
same,EC50,[4],20.6 µM (active)
COC(CN(C(=O)CCl)C(C(=O)NC1CCCCC1)c1ccc(C)cc1)OC (configuration not stated),EC50,[1],7 µM (active)
same,AC50,[2],> 380 µM (inactive)
CN(CC(=O)Nc1ccc(F)c(F)c1F)c1cnccn1,CC50,[8],23.5 µM (active)
CCN(CC)c1ccc(C=C2C(=O)OC(C)(C(C)(C)C)OC2=O)cc1 (configuration not stated),EC50,[9],> 300 µM (inconclusive)
same,EC50,[10],> 300 µM (inconclusive)
CC(=O)COc1cccc2ccc(/C=C/c3ccc(Br)s3)nc12,EC50,[11],60.9 µM (active)
same,CC50,[12],45.4 µM (active)
O=C(NNc1cccc(Cl)c1)c1cccnc1Cl,EC50,[3],> 38 µM (not active)
same,EC50,[4],24.8 µM (active)
same,AC50,[13],4.14 µM (active)
CC(c1ccc(O)cc1)(c1ccc(O)cc1)c1ccc(CCBr)cc1,EC50,[1],9.45 µM (active)
same,CC50,[12],17.4 µM (active)
same,AC50,[2],46.4 µM (active)
CCOC(=O)c1cnc2ccc(C)cc2c1Sc1ccccc1,EC50,[1],5.87 µM (active)
same,AC50,[2],5.63 µM (active)
CC(=O)n1c2c(c3ccccc31)OC(N)=C(C#N)C2c1cccc(Cl)c1Cl (configuration not stated),EC50,[11],42.4 µM (active)
same,AC50,[14],1.57 µM (active)
COc1ccc(Nc2nc3ccccc3nc2NS(=O)(=O)c2cccs2)cc1,EC50,[9],34.8 µM (active)
same,EC50,[10],> 300 µM (inconclusive)
COc1ccccc1-c1cc(C(=O)NC2CCN(C)CC2)c2ccc(Cl)c(C)c2n1,EC50,[15],1.4 µM (active)
same,CC50,[8],7.01 µM (active)
same,EC50,[16],> 60 µM (not active)
O=C1C(=CNCCN2CCNCC2)C(=O)N(C2CCCCC2)C(=O)N1C1CCCCC1,CC50,[8],33.5 µM (active)
COc1cc2c(cc1/C=C1/NC(=O)N(c3ccccc3)C1=O)OCO2,EC50,[9],> 300 µM (not active)
same,EC50,[10],> 300 µM (not active)
COCCNC(=O)NC12CC3CC(CC(C3)C1)C2,EC50,[3],> 38 µM (not active)
same,EC50,[4],> 160 µM (inconclusive)
O=C(NCCc1ccccc1)[C@@H]1CC=C[C@@H]2CCN(Cc3ccc(Cl)c(Cl)c3)C(=O)[C@@H]21,AC50,[17],6.35 µM (active)
same,CC50,[8],34.4 µM (active)
Cc1ccc(C)c(CN2C(=O)COc3ccccc32)c1,EC50,[11],> 260 µM (inactive)
CCc1ccccc1N=C(S)NNC(=O)c1ccccc1Cl,EC50,[3],1.93 µM (active)
same,EC50,[4],> 150 µM (inactive)
CCCCNC(=O)/C(=C\c1ccc([N+](=O)[O-])o1)NC(=O)c1ccccc1,EC50,[3],0.265 µM (active)
same,EC50,[4],> 150 µM (inactive)
same,EC50,[15],0.863 µM (active)
same,EC50,[16],> 60 µM (inconclusive)
Cc1ccc(S(=O)(=O)N(C)C[C@H]2Oc3ccc(NC(=O)Nc4ccc(C(F)(F)F)cc4)cc3CC(=O)N([C@@H](C)CO)C[C@H]2C)cc1,AC50,[18],9.45 µM (active)
Cc1ccc(NCC(=O)N/N=C/c2ccc(C(=O)O)cc2)cc1,EC50,[9],> 300 µM (not active)
same,EC50,[10],> 300 µM (not active)
C/C(=N/NC(=O)c1ccccc1O)c1ccc(N2C(=O)C3CCCCC3C2=O)cc1 (configuration not stated),EC50,[3],> 38 µM (not active)
same,EC50,[4],> 160 µM (inactive)
